Columns and labels:
[1] = tested on: Human umbilical vein endothelial cells (HUVECs); assay: Measurement of 50% lethal concentration for HUVEC (alamarBlue); type: cell-based; conditions: 72 hours incubation, 250 μM = maximum concentration dissolved in DMSO
Procedure: Human umbilical vein endothelial cells (HUVECs) (ATCC CRL-1730) were obtained from American Type Culture Collection and precultivated in an Endothelial Cell Growth Medium (CELL APPLICATIONS, USA) containing 10% bovine fetal serum supplemented with 1% Antibiotic-Antimycotic (GIBCO BRL, USA) under a 5% CO2 atmosphere at 37° C.
A Matrigel matrix (BD Biosciences, USA) was melted and kept at 4° C. on ice, and then, 50 μL of the matrix were transferred to each well of a 96-well tissue culture plate. The plate was incubated at 37° C. for at least one hour to solidify the matrix solution.
On the other hand, the astaxanthin monoester obtained in Preparation Example 1 was dissolved in dimethylsulfoxide (DMSO), and then diluted with distilled water to prepare stock test solutions in which the astaxanthin monoester was contained in 40 (v/v)% DMSO at 25000, 2500, 250, 25, and 2.5 μM, respectively. […]
After the incubation, 20 μL of a 90% alamarBlue reagent were added to individual wells, and incubated for an additional 6 hours. Then, the fluorescence intensity of each well was measured at an excitation wavelength of 530 nm and an emission wavelength of 590 nm using a Spectrafluor Plus plate reader to count the number of living cells. […] The 50% lethal concentration was calculated as the concentration at which the number of living cells was 50% of the number of cells at the start of the experiment.

[2] = tested on: obese model mice fed with a high-fat diet; assay: Effect of astaxanthin monoester on obese model mice fed with a high-fat diet; type: in vivo, male C57BL/6J strain mice
Procedure: Astaxanthin was administered to obese model mice fed with a high-fat diet, and the change in body weight, the amount of subcutaneous fat (in the inguinal region and the back), the amount of visceral fat (around the reproductive organs and around the kidney), the liver weight, the blood glucose level, and the insulin concentration in blood were examined in the following manner.
Four week old male C57BL/6J strain mice (SPF) purchased from CHARLES RIVER LABORATORIES JAPAN, INC. were used. The mice were preliminarily fed for 8 days and used for the test after they reached the age of 5 weeks. The mice were divided into three groups of 8 each, that is, a normal diet group, a high-fat diet group, and a high-fat diet+astaxanthin (AX) group, so that the average body weight was equal among the groups.
During the preliminary feeding period, the mice were given an ordinary powder diet (MF, Oriental Yeast Co., Ltd.), and during the test period of 16 weeks, the mice were given the ordinary powder diet or a high-fat diet having the composition shown in Table 2 below. As to drinking water, the mice were allowed to drink freely sterile distilled water from a water supply bottle.
The astaxanthin monoester prepared in Preparation Example 1 was dissolved in an olive oil (Wako Pure Chemical Industries, Ltd.) to prepare a solution containing astaxanthin monoester at a concentration of 60 mg/mL. This solution was administered to the high-fat diet+AX group and the olive oil to the other two groups in a volume of 0.05 mL/10 g body weight every day for 16 weeks from the start of the test (at the age of 5 weeks) to the age of 21 weeks, using a sonde for oral administration in the mice.
During the test period, the body weight was measured once a week using a scale. At the end of the test, the body weight was measured, and thereafter, the mice were fasted overnight and the blood glucose level was measured in the tail of each mouse using OneTouch Ultra™ (manufactured by Life Scan Inc., a blood glucose level measuring device). Next, blood was collected from the heart using a heparinized syringe with heparin Na. Immediately after the collection of blood, blood plasma was separated by centrifugation, and the obtained blood plasma was cryopreserved at −80° C. Then, the liver, the adipose tissue in the inguinal region, the adipose tissue around the reproductive organs, the adipose tissue around the kidney, and the adipose tissue in the back were collected and the weights thereof were measured. Thereafter, the insulin concentration in blood was measured with a commercially available kit (Mouse Insulin ELISA KIT (TMB) (AKRIN-011T): Shibayagi Co., Ltd.), using the blood plasma collected at the end of the test.
The different types of data obtained were expressed as average values±standard errors for each group. In order to test for statistically significant differences between the high-fat diet group and the high-fat diet+AX group or the normal diet group, a multiple comparison test (ANOVA) was performed using an analysis software (Stat View, Abacus Inc., USA), and a comparison between the groups was performed using Fisher's PLSD multiple comparison test. Differences were considered statistically significant when p<0.05.

[3] = high-fat diet+AX vs high-fat diet, end of 16-week test, FIG. 2
[4] = high-fat diet+AX vs high-fat diet, end of 16-week test, FIG. 3

astaxanthin monoester
LC50 [1]: ≥ 250 µM
change over time in mean body weight ([2]; high-fat diet+AX group vs high-fat diet group, oral, every day for 16 weeks, 60 mg/mL in olive oil, 0.05 mL/10 g body weight, FIG. 1): the increase in body weight tended to be suppressed
mean weight of subcutaneous fat [2, 3]: the accumulation of fat was significantly suppressed
mean weight of visceral fat [2, 3]: the accumulation of fat was significantly suppressed
proportion of the liver weight to body weight [2, 4]: the proportion approached that in the case of the normal diet
proportions of the mean weights of the adipose tissues to mean body weight [2, 4]: the increase was significantly suppressed
blood glucose level ([2]; high-fat diet+AX vs high-fat diet, fasted overnight, end of 16-week test, FIG. 5): maintained at the same level as that of the normal diet group
insulin concentration in blood ([2]; high-fat diet+AX vs high-fat diet, plasma at end of 16-week test, FIG. 4): the insulin concentration was considerably suppressed

From patent US20070135521A1, “Agent for Preventing Metabolic Syndrome” (YAMAHA HATSUDOKI KABUSHIKI KAISHA, priority 2005, published 2007)
